Assay [1] addresses T1, HCV polymerase (NS5B) type 1b (Hepatitis C virus genotype 1b, UniProt P26663).
T1 construct: a region encoding NS5B (J Virol 1991 March, 65(3), 1105-13, 544 amino acids after deletion of 47 amino acids on the C-terminal); 6xHis (C); made in house; host or cells: Escherichia coli
Nature of the assay: Assay of enzyme (HCV polymerase) inhibitory activity, type 1b enzyme. The assay is classed as biochemical, HCV BK strain (type 1b). The note with it: HCV polymerase inhibitory activity (IC50), 1b, type 1b enzyme 0.5 μg/ml, 25° C., 60 min. In a few lines: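 Rxn: NS5B 1b (BK, ΔC47, His6) 0.5 μg/ml; substrate RNA 5 μg/ml; ATP/GTP/CTP 50 μM, UTP 2 μM + [5,6-3H]UTP; 20 mM Tris pH 7.5, 5 mM MgCl2, 50 mM NaCl, 1 mM EDTA/DTT. 25 °C, 60 min. Stop with TCA/pyrophosphate, filter, scintillation count; IC50 vs. untreated.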

For assay [2], the target named is T2, HCV polymerase (NS5B) type 1a (Hepatitis C virus genotype 1a, UniProt P26664).
T2 construct: made in house; host or cells: Escherichia coli (by the 'similar method' of the 1b enzyme)
The assay is described as follows: Assay of enzyme (HCV polymerase) inhibitory activity, type 1a enzyme. The format is biochemical, HCV type 1a (cloned from the blood of patients). The conditions noted are these: HCV polymerase inhibitory activity (IC50), 1a, type 1a enzyme 1.5 μg/ml, 25° C., 60 min. The method in brief: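 NS5B Δ47 C-term His6 (type 1a, 1.5 μg/ml); substrate RNA 5 μg/ml; ATP/GTP/CTP 50 μM, UTP 2 μM + [5,6-3H]UTP; Tris pH 7.5, MgCl2 5 mM; 25° C, 60 min. TCA/pyrophosphate stop, GF/B filter, scintillation. IC50 vs no-compound control.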

Take `CCC(F)(F)c1ccc(CNC(=O)[C@H]2CN(C(=O)Nc3nc[nH]n3)CCN2S(=O)(=O)c2ccc(OC(F)(F)F)cc2)cc1` [Example 565, (R)-4-(4-trifluoromethoxy-benzenesulfonyl)-piperazine-1,3-dicarboxylic acid 3-[4-(1,1-difluoro-propyl)-benzylamide] 1-[(1H-[1,2,4]triazol-3-yl)-amide]]: the IC50 in assay [1] was < 100 nM; in assay [2] it was 100 to 1000 nM.

Take `CCC(F)(F)c1ccc(CNC(=O)[C@H]2CN(C(=O)Nc3nn[nH]n3)CCN2S(=O)(=O)c2ccc(OC(F)(F)F)cc2)cc1` [Example 566, (R)-4-(4-trifluoromethoxy-benzenesulfonyl)-piperazine-1,3-dicarboxylic acid 3-[4-(1,1-difluoro-propyl)-benzylamide] 1-[(2H-tetrazol-5-yl)-amide]]: the IC50 in assay [1] was < 100 nM; in assay [2], 100 to 1000 nM.

In the case of `CCC(F)(F)c1ccc(CNC(=O)[C@H]2CN(C(=O)Nc3csc(C)n3)CCN2S(=O)(=O)c2ccc(OC(F)(F)F)cc2)cc1` [Example 567, (R)-4-(4-trifluoromethoxy-benzenesulfonyl)-piperazine-1,3-dicarboxylic acid 3-[4-(1,1-difluoro-propyl)-benzylamide] 1-[(2-methyl-thiazol-4-yl)-amide]], the IC50 is < 100 nM in assay [1] and 100 to 1000 nM in assay [2].

For `CCC(F)(F)c1ccc(CNC(=O)[C@H]2CN(C(=O)n3nc(C)nc3N)CCN2S(=O)(=O)c2ccc(OC(F)(F)F)cc2)cc1` [Example 568, (R)-4-(5-amino-3-methyl-[1,2,4]triazole-1-carbonyl)-1-(4-trifluoromethoxy-benzenesulfonyl)-piperazine-2-carboxylic acid 4-(1,1-difluoro-propyl)-benzylamide], the IC50 in assay [1] and in assay [2] was > 1000 nM each time.

`CCC(F)(F)c1ccc(CNC(=O)[C@H]2CN(C(=O)Nc3ccn(C)n3)CCN2S(=O)(=O)c2ccc(OC(F)(F)F)cc2)cc1` [Example 569, (R)-4-(4-trifluoromethoxy-benzenesulfonyl)-piperazine-1,3-dicarboxylic acid 3-[4-(1,1-difluoro-propyl)-benzylamide] 1-[(1-methyl-1H-pyrazol-3-yl)-amide]]: the IC50 in assay [1] is < 100 nM; in assay [2], 100 to 1000 nM.

Take `CC(C)(C)c1ccc(CNC(=O)[C@H]2CN(c3ncc(CO)s3)CCN2S(=O)(=O)c2ccc(OC(F)(F)F)cc2)cc1` [Example 570, (R)-4-(5-hydroxymethyl-thiazol-2-yl)-1-(4-trifluoromethoxy-benzenesulfonyl)-piperazine-2-carboxylic acid 4-tert-butyl-benzylamide]: the IC50 in assay [1] and in assay [2] was < 100 nM in each case.

For the compound `CCCc1ccc(CNC(=O)[C@H]2CN(c3cc(Cl)ncn3)CCN2S(=O)(=O)c2ccc(OC(F)(F)F)cc2)cc1` [Example 571, (R)-4-(6-chloro-pyrimidin-4-yl)-1-(4-trifluoromethoxy-benzenesulfonyl)-piperazine-2-carboxylic acid 4-propyl-benzylamide], the IC50 in assay [1] and in assay [2] was < 100 nM in each case.

For `CCCc1ccc(CNC(=O)[C@H]2CN(c3ccncn3)CCN2S(=O)(=O)c2ccc(OC(F)(F)F)cc2)cc1` [Example 572, (R)-4-pyrimidin-4-yl-1-(4-trifluoromethoxy-benzenesulfonyl)-piperazine-2-carboxylic acid 4-propyl-benzylamide], the IC50 in assay [1] and in assay [2] was < 100 nM each time.

Turning to `CC(C)(C)c1ccc(CNC(=O)[C@H]2CN(c3nc4c(s3)C(=O)NC4=O)CCN2S(=O)(=O)c2ccc(OC(F)(F)F)cc2)cc1` [Example 573, (R)-4-(4,6-dioxo-5,6-dihydro-4H-pyrrolo[3,4-d]thiazol-2-yl)-1-(4-trifluoromethoxy-benzenesulfonyl)-piperazine-2-carboxylic acid 4-tert-butyl-benzylamide], the IC50 in assay [1] and in assay [2] was < 100 nM each time.

`CCCc1ccc(CNC(=O)[C@H]2CN(c3cnc4cncnc4n3)CCN2S(=O)(=O)c2ccc(OC(F)(F)F)cc2)cc1` [Example 574, (R)-4-pteridin-7-yl-1-(4-trifluoromethoxy-benzenesulfonyl)-piperazine-2-carboxylic acid 4-propyl-benzylamide]: the IC50 in assay [1] and in assay [2] was < 100 nM in each case.

For `CC(C)(C)c1ccc(CNC(=O)[C@H]2CN(c3cnc(CO)c(N)n3)CCN2S(=O)(=O)c2ccc(OC(F)(F)F)cc2)cc1` [Example 575, (R)-6′-amino-5′-hydroxymethyl-4-(4-trifluoromethoxy-benzenesulfonyl)-3,4,5,6-tetrahydro-2H-[1,2′]bipyrazinyl-3-carboxylic acid 4-tert-butyl-benzylamide], the IC50 in assay [1] and in assay [2] was < 100 nM throughout.

With `CCC(F)(F)c1ccc(CNC(=O)[C@H]2CN(c3nc(C)ns3)CCN2S(=O)(=O)c2ccc(OC(F)(F)F)cc2)cc1` [Example 576, (R)-4-(3-methyl-[1,2,4]thiadiazol-5-yl)-1-(4-trifluoromethoxy-benzenesulfonyl)-piperazine-2-carboxylic acid 4-(1,1-difluoro-propyl)-benzylamide], the IC50 in assay [1] and in assay [2] was < 100 nM in each case.

With `Cc1nc(N2CCN(S(=O)(=O)c3ccc(OC(F)(F)F)cc3)[C@@H](C(=O)NCc3ccc(C(C)(C)C)cc3)C2)sc1C#N` [Example 577, (R)-4-(5-cyano-4-methyl-thiazol-2-yl)-1-(4-trifluoromethoxy-benzenesulfonyl)-piperazine-2-carboxylic acid 4-tert-butyl-benzylamide], the IC50 in assay [1] and in assay [2] was < 100 nM each time.

Consider `CC(C)(C)c1ccc(CNC(=O)[C@H]2CN(c3nc4c(s3)C(=O)NCC4)CCN2S(=O)(=O)c2ccc(OC(F)(F)F)cc2)cc1` [Example 578, (R)-4-(4-oxo-4,5,6,7-tetrahydro-thiazolo[5,4-c]pyridin-2-yl)-1-(4-trifluoromethoxy-benzenesulfonyl)-piperazine-2-carboxylic acid 4-tert-butyl-benzylamide], for which the IC50 in assay [1] and in assay [2] was < 100 nM in each case.

With `CC(C)(C)c1ccc(CNC(=O)[C@H]2CN(c3cnc4c(n3)NC(=O)OC4)CCN2S(=O)(=O)c2ccc(OC(F)(F)F)cc2)cc1` [Example 579, (R)-4-(2-oxo-1,4-dihydro-2H-pyrazino[2,3-d][1,3]oxazin-7-yl)-1-(4-trifluoromethoxy-benzenesulfonyl)-piperazine-2-carboxylic acid 4-tert-butyl-benzylamide], the half-inhibitory concentration (IC50) in assay [1] and in assay [2] was < 100 nM in each case.

Regarding `CCC(F)(F)c1ccc(CNC(=O)[C@H]2CN(c3ccncn3)CCN2S(=O)(=O)c2ccc(OC(F)(F)F)cc2)cc1` [Example 580, (R)-4-pyrimidin-4-yl-1-(4-trifluoromethoxy-benzenesulfonyl)-piperazine-2-carboxylic acid 4-(1,1-difluoro-propyl)-benzylamide], the IC50 in assay [1] and in assay [2] was < 100 nM each time.

Take `CC(C)(C)c1ccc(CNC(=O)[C@H]2CN(c3ccnc(O)n3)CCN2S(=O)(=O)c2ccc(OC(F)(F)F)cc2)cc1` [Example 581, (R)-4-(2-hydroxy-pyrimidin-4-yl)-1-(4-trifluoromethoxy-benzenesulfonyl)-piperazine-2-carboxylic acid 4-tert-butyl-benzylamide]: the IC50 in assay [1] and in assay [2] was < 100 nM throughout.

In the case of `CCOC(=O)c1sc(N2CCN(S(=O)(=O)c3ccc(OC(F)(F)F)cc3)[C@@H](C(=O)NCc3ccc(C(C)(C)C)cc3)C2)nc1N` [Example 582, 4-amino-2-[(R)-3-(4-tert-butyl-benzylcarbamoyl)-4-(4-trifluoromethoxy-benzenesulfonyl)-piperazin-1-yl]-thiazole-5-carboxylic acid ethyl ester], the IC50 in assay [1] and in assay [2] was 100 to 1000 nM each time.

`Cc1nc(N2CCN(S(=O)(=O)c3ccc(OC(F)(F)F)cc3)[C@@H](C(=O)NCc3ccc(C(C)(C)C)cc3)C2)sc1-c1nnn[nH]1` [Example 583, (R)-4-[4-methyl-5-(1H-tetrazol-5-yl)-thiazol-2-yl]-1-(4-trifluoromethoxy-benzenesulfonyl)-piperazine-2-carboxylic acid 4-tert-butyl-benzylamide]: the IC50 in assay [1] and in assay [2] was < 100 nM throughout.

For the compound `CCC(F)(F)c1ccc(CNC(=O)[C@H]2CN(c3ccnc(N)n3)CCN2S(=O)(=O)c2ccc(OC(F)(F)F)cc2)cc1` [Example 584, (R)-4-(2-amino-pyrimidin-4-yl)-1-(4-trifluoromethoxy-benzenesulfonyl)-piperazine-2-carboxylic acid 4-(1,1-difluoro-propyl)-benzylamide], the IC50 in assay [1] and in assay [2] was < 100 nM throughout.

In the case of `CCC(F)(F)c1ccc(CNC(=O)[C@H]2CN(c3nccc(N)n3)CCN2S(=O)(=O)c2ccc(OC(F)(F)F)cc2)cc1` [Example 585, (R)-4-(4-amino-pyrimidin-2-yl)-1-(4-trifluoromethoxy-benzenesulfonyl)-piperazine-2-carboxylic acid 4-(1,1-difluoro-propyl)-benzylamide], the IC50 in assay [1] and in assay [2] was 100 to 1000 nM in each case.

The IC50 is the midpoint of a concentration-inhibition curve.

The record behind these values is patent US8017612B2, “Piperazine compound and use thereof as a HCV polymerase inhibitor” (priority 2006, dated 2011).
